Source: US20030152577A1, “Dye-bioconjugates for simultaneous optical diagnostic and therapeutic applications” (MALLINCKRODT INC., priority 2002, published 2003)

How the values were obtained:
Set-up in all cases: species or system male Lewis rats
[1] = test system: DSL 6/A (pancreatic) tumor; experiment: Non-invasive in vivo fluorescence imaging of DSL 6/A tumor in rats; settings: 0.5 ml of 0.42 mg/ml in saline, tail vein, images at 2 and 30 minutes post administration
Description: (§1) A non-invasive in vivo fluorescence imaging apparatus was employed to assess the efficacy of indocyanine green (ICG) in three different rat tumor cell lines of the inventive contrast agents developed for tumor detection in animal models. A LaserMax Inc. laser diode of nominal wavelength 780 nm and nominal power of 40 mW was used. The detector was a Princeton Instruments model RTE/CCD-1317-K/2 CCD camera with a Rodenstock 10 mm F2 lens (stock #542.032.002.20) attached. An 830 nm interference lens (CVI Laser Corp., part # F10-830-4-2) was mounted in front of the CCD input lens, such that only emitted fluorescent light from the contrast agent was imaged.
(§2) Three tumor cell lines, DSL 6/A (pancreatic), Dunning R3327-H (prostate), and CA20948 (pancreatic), which are rich in somatostatin (SST-2) receptors were induced into male Lewis rats by solid implant technique in the left flank area (Achilefu et al., Invest Radiology, 2000, pp. 479-485). Palpable masses were detected nine days post implant.

[2] = test system: CA20948 (pancreatic) tumor, rich in somatostatin (SST-2) receptors; experiment: Non-invasive in vivo fluorescence imaging of CA20948 tumor bearing rat
Description: as §1, §2
The peptide, octreotate, is known to target somatostatin (SST-2) receptors. Therefore, the cyano-octreotates conjugate, Cytate 1, was prepared as described in Example 4. The pancreatic acinar carcinoma, CA20948, was induced into male Lewis rats as described in Example 9.
Using the CCD camera apparatus, dye localization in the tumor was observed. […]

[3] = test system: Dunning R3327-H (prostate) tumor; experiment: Non-invasive in vivo fluorescence imaging of Dunning R3327-H tumor in rats; settings: 0.5 ml of 0.42 mg/ml in saline, tail vein, images at 2 and 30 minutes post administration
Description: as §1, §2

SMILES: CC1(C)C(/C=C/C=C/C=C/C=C2\N(CCCCS(=O)(=O)O)c3ccc4ccccc4c3C2(C)C)=[N+](CCCCS(=O)(=O)[O-])c2ccc3ccccc3c21 [ICG, indocyanine green]
- perfusion of the agent into the tumor [1]: slow perfusion of the agent into the tumor over time
- perfusion of the agent into the tumor ([2]; 0.5 ml of 0.42 mg/ml in saline, tail vein, images at 2 and 30 minutes post administration): only a slight and transient perfusion that was cleared after only 30 minutes post injection
- non-specific localization into the tumor line ([2]; compared to the other two lines): no non-specific localization
- perfusion of the agent into the tumor [3]: slow perfusion of the agent into the tumor over time
